The record followed here is PubChem BioAssay AID1996.

≈ marks a conversion by molar mass, not a printed value. A value given as a limit tells only on which side of the number the result lay.

The conditions of this data set: buffer; pH 7.4; 200.0 µM.
Turning to `C[C@@H](C(=O)Nc1ccc(OC(F)F)c(Cl)c1)N1C(=O)C2CC=CCC2C1=O` (stereo partly drawn), the kinetic solubility was over 59.8 µg/mL.
Compound `CC(=O)NCCc1ccc(C(=O)COC(=O)c2ccco2)cc1` had a solubility (kinetic) of over 47.3 µg/mL.
In turn, `Cc1nnc(SCC(=O)NCC(=O)Nc2ccc(F)c(F)c2F)n1N` registered a solubility (kinetic) of over 56.2 µg/mL.
As for `S=C(Nc1ccc2[nH]ccc2c1)NC1CCCCC1`, the figure is 37 µg/mL (≈ 135 µM); as for `O=C(NCc1ccccc1)C12CC3CC(CC(Cl)(C3)C1)C2`, 5 µg/mL (≈ 16.5 µM); as for `COc1ccc(NC(=O)c2ccc(S(=O)(=O)N3CC(C)OC(C)C3)cc2)cc1` (stereo not drawn), 7.8 µg/mL (≈ 19.3 µM).
Regarding `Cc1cccc(Cn2cnc3c(sc4nc(C)cc(C)c43)c2=O)c1`, the kinetic solubility is under 0.2 µg/mL.
As for `O/N=C/c1ccc2cccc(O)c2n1`, the figure is 26.3 µg/mL (≈ 140 µM); as for `CCOc1ccc(C(=O)N2CCN(c3ccccn3)CC2)cc1`, over 46.7 µg/mL; as for `COc1ccc(NC(=O)c2ccc(Oc3ncccn3)cc2)cc1`, 10.6 µg/mL (≈ 33 µM).
As for `CCCCC(=O)Nc1cc(OC)c(NC(=S)NC)cc1OC`, the figure is over 48.8 µg/mL.
As for `Cc1ccc(C(C)(c2ccc(N)cc2)c2ccc(N)cc2)cc1`, the figure is 10.3 µg/mL (≈ 34.1 µM); as for `N#Cc1ccc(N2CCOCC2)nc1`, over 28.4 µg/mL; as for `COc1ccc(NC(=S)N2CCN(C)CC2)cc1`, over 39.8 µg/mL.
For the compound `CN(C(=O)c1ccc(Br)o1)C1(C)CCS(=O)(=O)C1` (stereo not drawn), the kinetic solubility is over 50.4 µg/mL.
On to `CC(=O)Nc1ccc(C(=O)OCC(=O)Nc2ccc(S(=O)(=O)N3CCOCC3)cc2)cc1`, for which the solubility (kinetic) is over 69.2 µg/mL.
As for `CNC(=S)NC1CC2CCCC(C1)N2Cc1ccc(C)cc1` (stereo not drawn), the figure is 45.9 µg/mL (≈ 145 µM).
As for `CC(C)CCN1C(=O)c2ccc(C(=O)OCC(=O)N(CC(C)C)C3CCS(=O)(=O)C3)cc2C1=O` (stereo not drawn), the figure is 46.8 µg/mL (≈ 95 µM).
Under `O=c1c2ccccc2ncn1Cc1ccc2c(c1)OCO2` stands 15.1 µg/mL (≈ 53.9 µM); under `Cc1ccc(C2(c3noc(CN(C)CCO)n3)CCCC2)cc1`, 39.5 µg/mL (≈ 125 µM).
In turn, `COC(=O)C[n+]1cccc2ccccc21.[Cl-]` gave a kinetic solubility of over 35.7 µg/mL.
As for `Cc1nn(CCCC(=O)Nc2cccnc2Cl)c(C)c1[N+](=O)[O-]`, the figure is over 50.7 µg/mL; as for `CC(C)(C)NC(=O)C(OC(=O)c1cccs1)c1ccc(F)cc1` (stereo not drawn), 1.3 µg/mL (≈ 3.88 µM); as for `Cc1cccc(CC(C)NC(=O)CCc2nnc(-c3ccccc3)o2)n1` (stereo not drawn), over 52.6 µg/mL.
As to `CC(=O)N=c1c(C#N)cc2c(=O)n3cccc(C)c3nc2n1Cc1ccco1`, the solubility (kinetic) is 5.1 µg/mL (≈ 13.7 µM).
Under `Cc1noc(C)c1C(=O)OCC(=O)NC1CCCCC1C` (stereo not drawn) stands over 44.2 µg/mL.
As for `CCOC(=O)c1cc(C#N)c(C)nc1N(CC)CC`, the figure is 16.4 µg/mL (≈ 62.8 µM); as for `CC(=O)c1cnc(-c2cccc(Cl)c2)s1`, 1.3 µg/mL (≈ 5.47 µM); as for `O=C(Nc1ccc2c(c1)OCCO2)c1ccc(Br)cc1`, under 0.7 µg/mL.
`Cc1cccc(CNC(=O)C2CCC(=O)N(C3CC3)C2)c1` (stereo not drawn) yielded a solubility (kinetic) of over 43 µg/mL.
Compound `CC(=O)Cn1cnc2c(sc3nc(C)cc(C)c32)c1=O` came in with a solubility (kinetic) of 7.2 µg/mL (≈ 25.1 µM).
Under `CCCCCOC(=O)NC1CCS(=O)(=O)C1` (stereo not drawn) stands over 37.4 µg/mL; under `O=C(NCc1csc(-c2cccs2)n1)c1cccc(Cl)c1`, 7.9 µg/mL (≈ 23.6 µM); under `O=C(NCc1ccccc1F)c1cc(=O)[nH]c2ccccc12`, 4.9 µg/mL (≈ 16.5 µM).
Under `CC1CN(C(=O)c2ccccc2NS(=O)(=O)c2ccc(Cl)cc2)CC(C)O1` (stereo not drawn) stands over 61.3 µg/mL.
As for `Cc1ccc(S(=O)(=O)N(C)c2ccc(OC(=O)c3cccs3)cc2)cc1`, the figure is 1.2 µg/mL (≈ 3.1 µM); as for `N#Cc1sc(NCc2ccccn2)nc1Cl`, over 37.6 µg/mL; as for `O=S(=O)(NCc1csc(-c2cccs2)n1)c1ccccc1`, 40.6 µg/mL (≈ 121 µM).
`Cc1ccc(NC(=O)CO/N=C(\N)c2ccccc2)cc1C` came in with a solubility (kinetic) of 5 µg/mL (≈ 16.8 µM). This solubility kinetic is about 8.1-fold lower than that of the compound before.
Under `Cc1cc(C)c(C)c(OCC(=O)O/N=C(\N)c2cccnc2)c1` stands 2.5 µg/mL (≈ 7.98 µM).
`Cc1ccnc(NC(=O)CCCc2c[nH]c3ccccc23)c1` registered a kinetic solubility of 4.3 µg/mL (≈ 14.7 µM).
The compound `N#Cc1ccc(COc2cccnc2[N+](=O)[O-])cc1` came in with a kinetic solubility of 6.3 µg/mL (≈ 24.7 µM).
Turning to `COc1ccc(S(=O)(=O)NCCC(=O)NC2CCCCC2C)cc1[N+](=O)[O-]` (stereo not drawn), the kinetic solubility came out at 20.1 µg/mL (≈ 50.3 µM).
As for `CC(C)(C)NC(=O)NC12CC3CC(CC(C3)C1)C2`, the figure is 2.1 µg/mL (≈ 8.39 µM); as for `O=C1CSc2ccc(C(=O)NCCc3ccc(Cl)cc3Cl)cc2N1`, 3.7 µg/mL (≈ 9.7 µM).
Turning to `CN1CCN(c2nc3c(c(=O)[nH]2)CCC3)CC1`, the solubility (kinetic) is over 35.1 µg/mL.
Take `COc1cc(Br)c(CN2CCCN(C)CC2)cc1OC`: the solubility (kinetic) was 44.2 µg/mL (≈ 129 µM).
The compound `COc1ccccc1CNc1nc(C)c(C(C)=O)s1` showed a kinetic solubility of 12.1 µg/mL (≈ 43.8 µM).
Under `CC1(C)CC(NCc2ccncc2)CC(C)(C)N1` stands 32.2 µg/mL (≈ 130 µM).
As for `O=C(COC(=O)CCc1c[nH]c2ccccc12)NCc1ccc2c(c1)OCO2`, the figure is 43 µg/mL (≈ 113 µM); as for `Cc1cccnc1NC(=O)c1ccc(C(=O)c2ccccc2)cc1`, 42.5 µg/mL (≈ 134 µM).
Take `Cl.Fc1ccccc1Nc1nc(Cl)nc(Cl)n1`: the solubility (kinetic) was over 44.3 µg/mL.
As for `COc1ccc(CNc2cccc(C)n2)c(O)c1`, the figure is 28 µg/mL (≈ 115 µM); as for `COc1ccccc1CCNC(=O)Cn1c(=O)oc2ccccc21`, over 49 µg/mL.
`O=C(Nc1ccc2nccnc2c1)c1ccco1`: the solubility (kinetic) was over 35.9 µg/mL.
The compound `O=C(NCC1CCCO1)c1cc2ccccc2nc1Cl` (stereo not drawn) registered a kinetic solubility of over 43.6 µg/mL.
Compound `CN1CC(C#N)C2(O)c3ccccc3CCC2C1` (stereo not drawn) yielded a kinetic solubility of over 36.3 µg/mL.
Under `CC(=O)Nc1ccc(/C=C/c2ccc3c([N+](=O)[O-])cccc3n2)cc1` stands 16.2 µg/mL (≈ 48.6 µM); under `O=C(NC1CCCC1)c1ccc(Cl)s1`, 30.7 µg/mL (≈ 134 µM); under `CN(C)c1ccc(C(=O)OCc2cc(=O)n3ccsc3n2)cc1`, 3.8 µg/mL (≈ 11.5 µM).
As for `Fc1ccccc1OCCCCN1CCCCC1`, the figure is 27.7 µg/mL (≈ 110 µM); as for `CC(=O)Nc1nc2c(s1)C(=O)NCC(C)(C)C2`, over 38 µg/mL.
As for `NC(=O)CN1C(=O)C(=O)N(Cc2cccc(Cl)c2)C1=O`, the figure is over 44.4 µg/mL; as for `CC(=O)c1c(C)[nH]c(C(=O)N2CCN(c3ccccn3)CC2)c1C`, 42.4 µg/mL (≈ 130 µM); as for `Cc1cccc(N2C(=O)CC(n3ccnc3)C2=O)c1C` (stereo not drawn), 32.9 µg/mL (≈ 122 µM).
The compound `CC(C)CCn1cnc2c1c(=O)[nH]c(=O)n2Cc1ccccc1` yielded a solubility (kinetic) of 29.8 µg/mL (≈ 95.4 µM).
As for `O=C(Cn1cnc2ccccc21)c1ccc(Cl)cc1`, the figure is 28.9 µg/mL (≈ 107 µM); as for `O=S1(=O)C[C@@H](O)[C@@H](Nc2ccccc2)C1`, over 34.1 µg/mL.
In the case of `COc1ccccc1NC(=O)Cn1cc(C(=O)c2ccco2)c2ccccc21`, the kinetic solubility was 1.2 µg/mL (≈ 3.21 µM).
`OC(CN1CCOCC1)(c1ccccc1)c1ccccn1` (stereo not drawn) had a kinetic solubility of over 42.7 µg/mL.
In turn, `CC1C(=O)Nc2ccccc2N1C(=O)c1ccc(O)cc1` (stereo not drawn) had a kinetic solubility of over 42.3 µg/mL.
Under `CC1(C)C(=O)OC(c2ccc([N+](=O)[O-])cc2)C(C)(C)C1=O` (stereo not drawn) stands 2.5 µg/mL (≈ 8.58 µM); under `COc1ccc(/C=C/C(=O)NC(=S)N2CCSCC2)cc1`, 11.1 µg/mL (≈ 34.4 µM); under `COc1ccc(NC2CC(=O)N(c3cc([N+](=O)[O-])ccc3C)C2=O)cc1` (stereo not drawn), over 53.3 µg/mL.
As for `Cc1ccc(S(=O)(=O)Nc2ccc(F)c(S(=O)(=O)N3CCOCC3)c2)cc1`, the figure is over 62.2 µg/mL.
Under `Cc1cc(N2CCCC2)nc2c(C)cccc12` stands 7.2 µg/mL (≈ 31.8 µM); under `CCOc1ccc(C(=O)CCC(=O)N2CCN(c3ccccc3O)CC2)cc1`, 2.2 µg/mL (≈ 5.75 µM).
For `COc1ccc(NC(=O)[C@@H](NS(=O)(=O)c2cccc(Cl)c2)C(C)C)cc1S(=O)(=O)N1CCOCC1`, the kinetic solubility is over 81.9 µg/mL.
Under `O=C(Nc1ccc2nccnc2c1)Nc1ccccc1Cl` stands 1 µg/mL (≈ 3.35 µM); under `CC1CCCN(CC(=O)NC(=O)NC2CCCCC2)C1` (stereo not drawn), over 42.2 µg/mL.
Under `NS(=O)(=O)c1cccc(NC(=O)CSc2nc3ccccc3c(=O)n2Cc2ccco2)c1` stands 6.4 µg/mL (≈ 13.6 µM); under `O/C=c1\ccc2cccc3nc(C(F)(F)F)nc1c23`, 5.5 µg/mL (≈ 20.8 µM).
Consider `O=C(Nc1ccccc1Cl)OC1CN2CCC1CC2` (stereo not drawn), for which the kinetic solubility turned out to be 38.1 µg/mL (≈ 136 µM).
The compound `O=C(NCC(c1ccc(F)cc1)N1CCOCC1)c1ccc(OCc2ccccc2)cc1` (stereo not drawn) registered a kinetic solubility of 5.8 µg/mL (≈ 13.3 µM).
Under `O=C(COc1cccnc1[N+](=O)[O-])Nc1ccc(F)cc1` stands 11.5 µg/mL (≈ 39.5 µM); under `O=S(=O)(c1ccc(-c2ccno2)s1)N1CCCCC1`, 8.1 µg/mL (≈ 27.1 µM).
The compound `CC1=C(C(=O)OC2CCCCC2)C(c2ccccc2)NC(=O)N1` (stereo not drawn) came in with a solubility (kinetic) of 11.3 µg/mL (≈ 35.9 µM). This solubility kinetic and that of the compound before are within 1.5-fold of each other.
As for `CC(C)(C)C(=O)N1CCn2c1nc1ccccc12`, the solubility (kinetic) is 31.9 µg/mL (≈ 131 µM).
Under `CC1CCCCC1NC(=O)COC(=O)COc1ccccc1Cl` (stereo not drawn) stands 17.8 µg/mL (≈ 52.4 µM); under `Cc1ccc2c(c1)cc(C(=O)NCc1ccccc1)n2C`, 3.5 µg/mL (≈ 12.6 µM); under `COC(=O)c1cn(C(=O)c2ccc(Cl)cc2)c2ccccc12`, 1.6 µg/mL (≈ 5.1 µM).
Compound `CC(NC(=O)CCc1ccccc1)c1ccc2c(c1)OCO2` (stereo not drawn) registered a kinetic solubility of 42 µg/mL (≈ 141 µM). Against the preceding compound, the solubility kinetic is about 26-fold higher.
As for `Cc1cc(C)c2cc(C(=O)N3CCC(Cc4ccccc4)CC3)[nH]c2c1`, the figure is under 0.4 µg/mL.
Take `O=C(Cc1c(F)cccc1Cl)NC1CCN(Cc2ccccc2)CC1`: the solubility (kinetic) worked out at 50.5 µg/mL (≈ 140 µM).
As for `Cc1ccc(CNC(=O)c2ccc(S(=O)(=O)N(C)C)cc2)n1C`, the figure is 48.6 µg/mL (≈ 145 µM); as for `Cc1ccc(C)c(NC(=O)NCc2ccccn2)c1`, 35.4 µg/mL (≈ 139 µM).
Compound `CCCCC(=O)Nc1ccccc1N1CCN(c2ccc(F)cc2)CC1` registered a kinetic solubility of 4.3 µg/mL (≈ 12.1 µM).
As for `CC(=O)Nc1ccc(C2C(=O)c3ccccc3C2=O)cc1`, the figure is 39 µg/mL (≈ 140 µM).
Consider `CN(CC(=O)Nc1ccc(F)cc1)C(=O)Cc1ccsc1`, for which the solubility (kinetic) was over 46 µg/mL.
Compound `COc1ccc(Nc2cc(Nc3cccc(OC)c3)ncn2)cc1` registered a kinetic solubility of 0.5 µg/mL (≈ 1.55 µM).
With `O=C(c1cc(Br)c[nH]1)N1CCCCC1`, the kinetic solubility is over 38.6 µg/mL.
For `CCC(=O)NCCNc1nc2cc(C)cc(C)c2cc1C#N`, the solubility (kinetic) was 3.7 µg/mL (≈ 12.5 µM).
Under `CCCCCCC1CCC(C(=O)N2CCOCC2)CC1` (stereo not drawn) stands 10 µg/mL (≈ 35.5 µM).

What is called kinetic solubility is solubility judged after dilution from a stock solution rather than from solid.
